Among the data in US8399683B2 (TetraLogic Pharmaceuticals, priority 2008, dated 2013) are Kd and CC50 values, retold here.

One assay concerns the target cIAP-1 BIR-3 (Homo sapiens, UniProt Q13490). Put plainly: Fluorescence polarization binding affinity to cIAP-1 BIR-3 (competition with AbuRPF-K(5-Fam)-NH2). The settings on record: 5 nM labeled peptide, 40 nM BIR3, 15 min at RT, pH 7.5; reported as ranges; read-out: KD (c-IAP-1 BIR3). Summed up: (§1)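 Test peptides at varied concentrations competed with 5 nM fluorescent Smac-mimetic tracer for 40 nM BIR3 domain, 15 min at RT in 0.1M potassium phosphate pH 7.5 with […] bovine g-globulin. Polarization (mP) read at 485/520 nm; KD reported in bins (A=<0.1 μM, B=0.1–1 μM, C>1–10 μM, D=>10 μM).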

The next assay has as its target T1, XIAP BIR-3 (Homo sapiens, UniProt P98170).
T1 construct: 40 nM of the respective IAP BIR3
The assay can be described thus: Fluorescence polarization binding affinity to XIAP BIR-3 (competition with AbuRPF-K(5-Fam)-NH2). Particulars: 5 nM labeled peptide, 40 nM BIR3, 15 min at RT, pH 7.5; reported as ranges. Summed up:
as §1

The next assay deals with SK-OV-3 cells. The assay can be described thus: Growth inhibition of ovarian cancer cell line SK-OV-3 (MTT assay, cell survival). The format is cell-based. Particulars: Homo sapiens, drug concentration that results in 50% cell survival, 72 hrs incubation, reported as ranges. Summed up: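 After overnight seeding in McCoy's medium with 10% FBS, SK-OV-3 cells were exposed to compound at 0.003-10 μM for 72 hrs at 37° C. MTT was then added for 3 h, with DMSO solubilization and OD read at 535 nm. CC50 is the concentration giving 50% survival relative to untreated control, reported as ranges.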

The structures appear in SMILES notation. A value given as a limit tells only on which side of the number the result lay.

Chain of cIAP-1 BIR-3 (Q13490 266-352 limits assumed): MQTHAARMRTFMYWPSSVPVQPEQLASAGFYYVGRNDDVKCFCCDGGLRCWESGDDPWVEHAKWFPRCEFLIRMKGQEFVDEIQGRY
T1 sequence (P98170 241-356 limits assumed): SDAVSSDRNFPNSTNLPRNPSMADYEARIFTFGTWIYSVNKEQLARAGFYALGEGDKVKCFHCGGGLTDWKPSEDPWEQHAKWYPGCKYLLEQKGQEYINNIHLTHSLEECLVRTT

For `CN[C@@H](C)C(=O)N[C@H](C(=O)N1CC[C@@H]2[C@H]1[C@@H](c1c[nH]c3ccccc13)CN2C(C)C)C1CCCCC1` [Example 98], the values for the Kd on cIAP-1 BIR-3 and at XIAP BIR-3 were 100 to 1000 nM and 1000 to 10000 nM, respectively. Moreover, in the assay on SK-OV-3 cells, the CC50 was in the range of 100 to 1000 nM.

As to `CN[C@@H](C)C(=O)N[C@H](C(=O)N1CC[C@@H]2[C@H]1[C@@H](c1c[nH]c3cc(F)ccc13)CN2C(=O)OCc1ccccc1)C1CCCCC1` [Example 99], the Kd at cIAP-1 BIR-3 and on XIAP BIR-3 was less than 100 nM throughout. Besides, the CC50 in the assay on SK-OV-3 cells is less than 100 nM.

Regarding `CN[C@@H](C)C(=O)N[C@H](C(=O)N1CC[C@@H]2[C@H]1[C@@H](c1c[nH]c3cc(F)ccc13)CN2Cc1ccccc1)[C@@H](C)OC` [Example 100], the Kd on cIAP-1 BIR-3 and on XIAP BIR-3 was less than 100 nM throughout. The same compound returned a CC50 with SK-OV-3 cells of less than 100 nM.

As for `CN[C@@H](C)C(=O)N[C@H](C(=O)N1CC[C@@H]2[C@H]1[C@@H](c1c[nH]c3cc(F)ccc13)CN2Cc1ccccc1)[C@@H](C)O` [Example 101], the Kd on cIAP-1 BIR-3 was less than 100 nM; on XIAP BIR-3 it was 100 to 1000 nM. The CC50 with SK-OV-3 cells was in the range of 100 to 1000 nM.

Regarding `CN[C@@H](C)C(=O)N[C@@H](COC)C(=O)N1CC[C@@H]2[C@H]1[C@@H](c1c[nH]c3cc(F)ccc13)CN2Cc1ccccc1` [Example 102], the dissociation constant Kd at cIAP-1 BIR-3 was 100 to 1000 nM; on XIAP BIR-3, 1000 to 10000 nM. In the assay with SK-OV-3 cells, this compound returned a CC50 of 1000 to 10000 nM.

`CN[C@@H](C)C(=O)N[C@@H](CO)C(=O)N1CC[C@@H]2[C@H]1[C@@H](c1c[nH]c3cc(F)ccc13)CN2Cc1ccccc1` [Example 103]: the equilibrium dissociation constant (Kd) at cIAP-1 BIR-3 lay in the range of 100 to 1000 nM; at XIAP BIR-3, 1000 to 10000 nM. This compound also registered a CC50 in the assay on SK-OV-3 cells of 1000 to 10000 nM.

As for `CN[C@@H](C)C(=O)N[C@H](C(=O)N1CC[C@@H]2[C@H]1[C@@H](c1c[nH]c3cc(F)ccc13)CN2Cc1ccccc1)C(C)(C)C` [Example 104], the dissociation constant Kd on cIAP-1 BIR-3 and at XIAP BIR-3 was less than 100 nM each time. Besides, the CC50 in the assay on SK-OV-3 cells was less than 100 nM.

Consider `CN[C@@H](C)C(=O)N[C@H](C(=O)N1CC[C@@H]2[C@H]1[C@@H](c1c[nH]c3cc(F)ccc13)CN2Cc1ccccc1)C(C)C` [Example 105], for which the Kd was less than 100 nM on cIAP-1 BIR-3 and 100 to 1000 nM on XIAP BIR-3. The CC50 in the assay with SK-OV-3 cells is less than 100 nM.

`CC[C@H](NC(=O)[C@H](C)NC)C(=O)N1CC[C@@H]2[C@H]1[C@H](c1c[nH]c3cc(F)ccc13)CN2Cc1ccccc1` [Example 106]: the results for the Kd on cIAP-1 BIR-3 and at XIAP BIR-3 were 100 to 1000 nM and greater than 10000 nM, respectively. The same compound yielded a CC50 in the assay with SK-OV-3 cells of 1000 to 10000 nM.

Consider `CN[C@@H](C)C(=O)N[C@H](C(=O)N1CC[C@@H]2[C@H]1[C@@H](c1c[nH]c3cc(F)ccc13)CN2Cc1ccccc1)C1CCCCC1` [Example 107], for which the Kd at cIAP-1 BIR-3 and at XIAP BIR-3 was less than 100 nM throughout. The same compound displayed a CC50 with SK-OV-3 cells of 100 to 1000 nM.

As to `CN[C@@H](C)C(=O)N[C@H](C(=O)N1CC[C@@H]2[C@H]1CCN2C(=O)OCc1ccccc1)C1CCCCC1` [Example 108, 4-[2-Cyclohexyl-2-(2-methylamino-propionylamino)-acetyl]hexahydro-pyrrolo[3,2-b]pyrrole-1-carboxylic acid benzyl ester], the Kd was less than 100 nM at cIAP-1 BIR-3 and 1000 to 10000 nM at XIAP BIR-3. Besides, the CC50 in the assay on SK-OV-3 cells lay in the range of 100 to 1000 nM.

For `CN[C@@H](C)C(=O)N[C@H](C(=O)N1CC[C@H]2NCC[C@H]21)C1CCCCC1` [Example 109, N-[1-Cyclohexyl-2-(hexahydro-pyrrolo[3,2-b]pyrrol-1-yl)-2-oxo-ethyl]-2-methylamino-propionamide], the Kd at cIAP-1 BIR-3 is 100 to 1000 nM; on XIAP BIR-3, 1000 to 10000 nM. The compound also displayed a CC50 in the assay with SK-OV-3 cells greater than 10000 nM.

As to `CNC(C)C(=O)NC(C(=O)N1CCC2C1CCN2C(=O)C(NC(=O)C(C)NC)C1CCCCC1)C1CCCCC1` (stereo not drawn) [Example 110, N-(1-Cyclohexyl-2-{4-[2-cyclohexyl-2-(2-methylamino-propionylamino)-acetyl]-hexahydro-pyrrolo[3,2-b]pyrrol-1-yl}-2-oxo-ethyl)-2-methylamino-propionamide], the results for the Kd at cIAP-1 BIR-3 and on XIAP BIR-3 were less than 100 nM and 1000 to 10000 nM, respectively. Also, in the assay with SK-OV-3 cells, the CC50 fell in the range of 1000 to 10000 nM.

For the compound `CNC(C)C(=O)NC(C(=O)N1CC(c2c[nH]c3cc(F)ccc23)C2C1CCN2C(=O)C(NC(=O)C(C)NC)C1CCCCC1)C1CCCCC1` (stereo not drawn) [Example 111, N-{1-Cyclohexyl-2-[4-[2-cyclohexyl-2-(2-methylamino-propionylamino)-acetyl]-6-(6-fluoro-1H-indol-3-yl)-hexahydro-pyrrolo[3,2-b]pyrrol-1-yl]-2-oxo-ethyl}-2-methylamino-propionamide], the Kd on cIAP-1 BIR-3 and at XIAP BIR-3 was less than 100 nM each time. The compound further yielded a CC50 in the assay with SK-OV-3 cells of less than 100 nM.
